Like-named read-outs stand apart in the source and are kept apart here.
Legend:
[1] = Pharmacokinetics and tissue distribution of gemcitabine in CD-1 mice; assay type: in vivo; details: gemcitabine 160 mg/kg iv
Procedure: At various times (5, 15, and 30 min, 1, 2, 4, 8, and 24 hr after drug dosing), plasma, bone marrow, and tissues including liver, kidneys, heart, lungs, spleen, brain and tumor were collected and treated as described above.
In brief, plasma samples (50 μL) were mixed with […] of scintillation solvent (Beckman) to determine total radioactivity. Tissue homogenates (50-200 μL) were mixed with 200 μL solubilizer (TS-2) overnight, neutralized with 400 μL of 0.3% acetic acid, and then mixed with scintillation solvent (5 mL) to quantitate the total radioactivity.
(§1) The significance of the differences among treated groups and controls were analyzed by ANOVA.

[2] = Pharmacokinetics of gemcitabine in nude mice bearing H1299 xenografts; assay type: in vivo; details: for AUC / CL / Cmax / Vss: nude mice bearing H1299 xenografts, gemcitabine 160 mg/kg iv
Procedure: Female nude mice bearing human lung cancer H1299 xenograft were used (3 mice for each time point). […] Bone marrow cells were harvested by using the same method described above. […] In brief, plasma samples (50 μL) were mixed with 5 mL of scintillation solvent (Beckman) to determine total radioactivity. […] Data and Statistical Analysis.

[3] = system: human cancer xenografts; assay: Six murine-human cancer xenograft models overall: efficacy and toxicity
Procedure: (§4) Human cancer xenograft models were established using the methods reported previously (26-29). When confluence reached 80%, cultured LS174T, MCF-7, MDA-MB-468, U87-MG, A549 and H1299 cells were harvested from the monolayer cultures, washed with the above indicated serum-free medium and resuspended in the same medium with Matrigel® basement membrane matrix at a 3:1 ratio, and then injected subcutaneously (s.c.) (5×10^6 cells, total volume 0.2 mL) into the left inguinal area of the nude mice. The animals were monitored for activity, physical condition, determination of body weight, and measurement of tumor growth. Tumor growth was determined by caliper measurement in two perpendicular diameters of the implant every other day. Tumor weight (in g) was calculated by the formula, 1/2a×b^2 where “a” is the long diameter and “b” is the short diameter (in cm).
(§5) Nude mice bearing human cancer xenografts were randomly divided into various treatment and control groups (5 mice/group). In treatment groups, animals were pre-treated with DEX subcutaneously (s.c., 0.1 mg/day for 5 days, Day −4-0) or saline (as controls). Carboplatin was administered intraperitoneally (i.p.) at a single dose of 120 mg/kg (360 mg/m^2) on day 0.
(§6) The antitumor activity (tumor mass) and peripheral blood counts were expressed as mean and standard deviations and the significance of differences were analyzed by ANOVA.
(§7) When mean tumor mass reached 44-68 mg, animals were treated with s.c. DEX at a dose of 0.1 mg/day for 5 days, followed by chemotherapy.

[4] = system: CD-1 mice; assay type: in vivo; details: for survival rate: carboplatin 600 mg/m^2 (200 mg/kg) i.p., 14-day
Procedure: Male CD-1 mice, randomly divided into multiple treatment and control groups (10 mice/group), were given DEX by subcutaneous (s.c.) injection at doses of 0.01, 0.05, 0.1, 0.3 mg/mouse/day or saline (as controls) for 5 days prior to (day −4 to 0) or after (day 0 to 4) a single intraperitoneal (i.p.) injection of carboplatin (600 mg/m^2 or 200 mg/kg) on day 0. Animals were monitored daily for activity, physical condition, body weight and 14-day survival rates.
as §1

[5] = system: CD-1 mice
Procedure: sing a protocol similar to the above survival study, the effects of DEX on chemotherapy-induced bone marrow toxicity were studied in male CD-1 mice. DEX (s.c., 0.1 mg/mouse/day for 5 days) was given prior to (day −4-0) or after (day 0 to 4) a single i.p. dose of carboplatin (600 mg/m^2 or 200 mg/kg). On days −4, 0, 3, 7, 14, peripheral blood samples (60 μL) were obtained from postorbital venous plexus using a microcapillary tube coated with 5% ethylenediaminetetraacetic acid and cell counts were obtained using a Coulter counter. Wright's stained peripheral blood smears were examined by light microscopy and the percentage of lymphocytes, granulocytes and monocytes were recorded.
as §1
To examine possible mechanisms responsible for reduced mortality in mice pre-treated with DEX, peripheral blood counts before and after chemotherapy were determined. […] The same experimental design was used to examine the dose-schedule effects of dexamethasone prevention of neutropenia.

[6] = system: human colon cancer LS174T xenografts; assay: In vivo chemotherapy, colon cancer LS174T xenograft model in nude mice; details: DEX s.c. 0.1 mg/day 5 days, carboplatin 120 mg/kg i.p. day 0
From the text: (§2) Cell Culture. […] All media contained 1% penicillin-streptomycin.
(§3) Data and Statistical Analysis.

[7] = system: human lung cancer A549 xenografts; details: A549 model
From the text: as §2, §3

[8] = system: human lung cancer H1299 xenografts; assay: In vivo chemotherapy, lung cancer H1299 xenograft model in nude mice
From the text: as §2, §3

[9] = system: human breast cancer MCF-7 xenografts; assay: In vivo chemotherapy, breast cancer MCF-7 xenograft model in nude mice; details: MCF-7 model
From the text: as §2, §3

[10] = system: NSCLC patients; assay: Clinical trial of Dex pretreatment with carboplatin and gemcitabine in stage 4 NSCLC patients; assay type: in vivo, human; details: for AGC nadir ratio (course 2 ÷ course 1), M±SE: 4 days prior to and day of chemotherapy
Procedure: Patients were randomized at a 1:2:2 ratio to receive no Dex (Cohort 1), or Dex 8 mg bid (Cohort 2) or 16 mg bid (Cohort 3), 4 days prior to and the day of each chemotherapy treatment. Dex was given only in courses 2, 3, and 4 so that toxicities between course 1 vs. course 2 comparisons could be made.

[11] = system: human glioma U87-MG xenografts; details: U87MG model
Procedure: Cell Culture. The cell lines of human cancers (colon LS174T, breast MCF-7 and MDA-MB-468, and lung A549) and glioma (U87-MG) were obtained from American Type Culture Collection (Rockville, Md.) and cultured according to their instruction. LS174T cells were cultured in modified Earle's medium with 0.1 mM nonessential amino acids and Earle's balanced salt solution containing 10% FBS. MCF-7 cells were grown in modified Earle's medium containing 10% FBS, 1 mM non-essential amino acids and Earle's balanced salt solution, 1 mM sodium pyruvate and 10 mg/L bovine insulin. MDA-MB-468 cells were grown in Dulbecco's modified Eagle's/F-12 Ham's medium (1:1 mixture) containing 10% FBS. […]
Animal Tumor Models. […] The animals were monitored for activity, physical condition, determination of body weight, and measurement of tumor growth. Tumor growth was determined by caliper measurement in two perpendicular diameters of the implant every other day. Tumor weight (in g) was calculated by the formula, 1/2a×b^2 where “a” is the long diameter and “b” is the short diameter (in cm). […]
Data and Statistical Analysis. The antitumor activity (tumor mass) and peripheral blood counts were expressed as mean and standard deviations and the significance of differences were analyzed by ANOVA. […]

[12] = system: human cancer xenografts; details: in vivo
Procedure: as §4, §5, §6, §7

Nc1ccn([C@@H]2O[C@H](CO)[C@@H](O)C2(F)F)c(=O)n1 [gemcitabine]
AUC ([1]; bone marrow, DEX (+)): 7.03 µg·h/mL | CL ([1]; bone marrow, DEX (+)): 22.76 mL/g/h | Cmax ([1]; bone marrow, DEX (+)): 15.82 µg/mL | Vss ([1]; bone marrow, DEX (+)): 10.12 mL/g | AUC ([1]; bone marrow, DEX (−)): 18.35 µg·h/mL | CL ([1]; bone marrow, DEX (−)): 8.72 mL/g/h | Cmax ([1]; bone marrow, DEX (−)): 16.12 µg/mL | Vss ([1]; bone marrow, DEX (−)): 9.93 mL/g | AUC ([1]; liver, DEX (+)): 124.80 µg·h/mL | CL ([1]; liver, DEX (+)): 1.28 mL/g/h | Cmax ([1]; liver, DEX (+)): 166.94 µg/mL | Vss ([1]; liver, DEX (+)): 0.96 mL/g | AUC ([1]; liver, DEX (−)): 123.68 µg·h/mL | CL ([1]; liver, DEX (−)): 1.29 mL/g/h | Cmax ([1]; liver, DEX (−)): 158.43 µg/mL | Vss ([1]; liver, DEX (−)): 1.01 mL/g | AUC ([1]; plasma, DEX (+)): 319.96 µg·h/mL | CL ([1]; plasma, DEX (+)): 0.50 mL/g/h | Cmax ([1]; plasma, DEX (+)): 253.68 µg/mL | Vss ([1]; plasma, DEX (+)): 10.81 mL/g | AUC ([1]; plasma, DEX (−)): 552.32 µg·h/mL | CL ([1]; plasma, DEX (−)): 0.29 mL/g/h | Cmax ([1]; plasma, DEX (−)): 264.13 µg/mL | Vss ([1]; plasma, DEX (−)): 16.64 mL/g | AUC ([1]; spleen, DEX (+)): 135.50 µg·h/mL | CL ([1]; spleen, DEX (+)): 1.18 mL/g/h | Cmax ([1]; spleen, DEX (+)): 193.29 µg/mL | Vss ([1]; spleen, DEX (+)): 0.83 mL/g | AUC ([1]; spleen, DEX (−)): 375.21 µg·h/mL | CL ([1]; spleen, DEX (−)): 0.43 mL/g/h | Cmax ([1]; spleen, DEX (−)): 196.84 µg/mL | Vss ([1]; spleen, DEX (−)): 0.81 mL/g | increase in tumor AUC by DEX pretreatment ([2]; H1299 nude mice): 60% | AUC ([2]; bone marrow, DEX (+)): 16.41 µg·h/mL | CL ([2]; bone marrow, DEX (+)): 9.75 mL/g/h | Cmax ([2]; bone marrow, DEX (+)): 14.36 µg/mL | Vss ([2]; bone marrow, DEX (+)): 11.14 mL/g | AUC ([2]; bone marrow, DEX (−)): 21.10 µg·h/mL | CL ([2]; bone marrow, DEX (−)): 7.58 mL/g/h | Cmax ([2]; bone marrow, DEX (−)): 18.53 µg/mL | Vss ([2]; bone marrow, DEX (−)): 8.64 mL/g | AUC ([2]; liver, DEX (+)): 107.85 µg·h/mL | CL ([2]; liver, DEX (+)): 1.48 mL/g/h | Cmax ([2]; liver, DEX (+)): 157.46 µg/mL | Vss ([2]; liver, DEX (+)): 1.02 mL/g | AUC ([2]; liver, DEX (−)): 123.27 µg·h/mL | CL ([2]; liver, DEX (−)): 1.30 mL/g/h | Cmax ([2]; liver, DEX (−)): 171.80 µg/mL | Vss ([2]; liver, DEX (−)): 0.93 mL/g | AUC ([2]; plasma, DEX (+)): 322.43 µg·h/mL | CL ([2]; plasma, DEX (+)): 0.50 mL/g/h | Cmax ([2]; plasma, DEX (+)): 237.16 µg/mL | Vss ([2]; plasma, DEX (+)): 9.90 mL/g | AUC ([2]; plasma, DEX (−)): 277.38 µg·h/mL | CL ([2]; plasma, DEX (−)): 0.58 mL/g/h | Cmax ([2]; plasma, DEX (−)): 286.72 µg/mL | Vss ([2]; plasma, DEX (−)): 5.96 mL/g | AUC ([2]; spleen, DEX (+)): 505.40 µg·h/mL | CL ([2]; spleen, DEX (+)): 0.32 mL/g/h | Cmax ([2]; spleen, DEX (+)): 179.42 µg/mL | Vss ([2]; spleen, DEX (+)): 0.89 mL/g | AUC ([2]; spleen, DEX (−)): 909.92 µg·h/mL | CL ([2]; spleen, DEX (−)): 0.18 mL/g/h | Cmax ([2]; spleen, DEX (−)): 221.99 µg/mL | Vss ([2]; spleen, DEX (−)): 0.72 mL/g | AUC ([2]; tumor, DEX (+)): 674.44 µg·h/mL | CL ([2]; tumor, DEX (+)): 0.23 mL/g/h | Cmax ([2]; tumor, DEX (+)): 46.66 µg/mL | Vss ([2]; tumor, DEX (+)): 12.72 mL/g | AUC ([2]; tumor, DEX (−)): 434.55 µg·h/mL | CL ([2]; tumor, DEX (−)): 0.37 mL/g/h | Cmax ([2]; tumor, DEX (−)): 49.15 µg/mL | Vss ([2]; tumor, DEX (−)): 9.01 mL/g | death ([3]; nude mice, carboplatin 120 mg/kg, gemcitabine 160 mg/kg i.p.): no death occurred

C[C@@H]1C[C@H]2[C@@H]3CCC4=CC(=O)C=C[C@]4(C)[C@@]3(F)[C@@H](O)C[C@]2(C)[C@@]1(O)C(=O)CO [DEX, dexamethasone]
death ([4]; CD-1 mice, DEX alone s.c. 0.01-0.3 mg/mouse/day for 5 days): No death occurred | survival rate ([4]; CD-1 mice, DEX pretreatment 0.01 mg/mouse/day for 5 days): 40% | survival rate ([4]; CD-1 mice, DEX pretreatment s.c. 0.1 mg/mouse/day for 5 days): 80% | mortality of treated animals ([4]; combination treatment with carboplatin and gemcitabine, DEX pretreatment): reduced the mortality of treated animals | optimal dose for prevention of neutropenia ([5]; CD-1 mice, DEX before carboplatin 360 mg/m^2): 0.1 mg/kg | peripheral blood counts, effect of dexamethasone ([5]; mouse, in vivo): induction of transient granulocytosis and lymphopenia | increase of therapeutic effect of carboplatin by DEX pretreatment [6]: approximately 80% | increase of therapeutic effectiveness of carboplatin by DEX pretreatment [7]: 50% | increase of therapeutic effectiveness of gemcitabine by DEX pretreatment [7]: 60% | increase of anticancer effects of carboplatin by DEX pretreatment [8]: 70% | increase of efficacy of carboplatin by DEX pretreatment [9]: 66% | increase of efficacy of gemcitabine by DEX pretreatment [9]: 60% | Responses: number of PD ([10]; Cohort 2 (n=8), Dex 8 mg bid): 1 | Responses: number of PR ([10]; Cohort 2 (n=8), Dex 8 mg bid): 7 | platelet nadir ratio (course 2 ÷ course 1), M±SE ([10]; Cohort 2: Dex 8 mg bid): 2.68±0.6 | AGC nadir ratio (course 2 ÷ course 1), M±SE ([10]; Cohort 2: Dex 8 mg bid): 2.68±0.8 | Responses: number of PD ([10]; Cohort 3 (n=10), Dex 16 mg bid): 1 | Responses: number of PR ([10]; Cohort 3 (n=10), Dex 16 mg bid): 8 | Responses: number of SD ([10]; Cohort 3 (n=10), Dex 16 mg bid): 1 | platelet nadir ratio (course 2 ÷ course 1), M±SE ([10]; Cohort 3: Dex 16 mg bid): 2.72±0.6 | AGC nadir ratio (course 2 ÷ course 1), M±SE ([10]; Cohort 3: Dex 16 mg bid): 2.94±0.7 | reduction of toxicity, data trends ([10]; Dex 16 mg): effective in reducing toxicity | Dex DLTs ([10]; NSCLC patients, Dex 8 or 16 mg bid): No Dex DLTs were observed | increase of therapeutic effectiveness of combination therapy of carboplatin and gemcitabine by DEX pretreatment [11]: 130% | effect of DEX pretreatment on toxicity profiles of the two chemotherapeutic agents [12]: no effect on toxicity profiles | increase of efficacy of carboplatin, gemcitabine or combination by DEX pretreatment ([3]; all xenograft models tested): 2-4 fold

— patent US20050244335A1, “Methods and compositions related to increasing antitumor activity of chemotherapeutic agents” (priority 2004, published 2005)
